Reference: patent publication US20050124647A1, “Tricyclic derivatives of indole with antiangiogenic activity” (Sigma-Tau Industrie Farmaceutiche Riunite S.p.A., priority 2000, published 2005)
Where two headings read alike, the source gives them in different places.

Columns and labels:
LoVo/DX = experiment: Antiproliferative activity vs resistant cell LoVo/DX; format: cell-based; details: Homo sapiens, resistant cell (doxorubicin-resistant, P-glycoprotein overexpressing), read-out: IC50 +/− SD, LoVo/DX
Method: (§1) The test used was the sulforodamine B test used for screening anticancer products at the National Cancer Institute (Skehan, 1990). The molecules at scalar concentrations over a range from 500 μM to 0.97 μM, were incubated in parallel with different human cell lines for 24 hours. After removing the products, cell survival was investigated after another 48 hours with the NCI test. The antiproliferative capacity of the compounds was quantified in terms of IC50±SD (concentration of the molecule that inhibits 50% of cell survival) processed using a curve fitting program (De Lean et al., 1978).
(§2) The cytotoxicity of the molecules on tumour lines resistant to chemosensitising activity was assessed on various tumour cell lines overexpressing P-glycoprotein and resistant to doxorubicin (100-fold) and cross-resistant to daunorubicin, actinomycin D, mitoxantrone, vincristine, vinblastine, taxol, colchicine, and etoposide. The cytotoxicity of the products was assessed using the same test adopted for the sensitive tumour cells.

MCF-7/DX = experiment: Antiproliferative activity vs resistant cell MCF-7/DX; format: cell-based; details: Homo sapiens, MCF7/DX; resistant cell (doxorubicin-resistant, P-glycoprotein overexpressing); read-out: IC50 +/− SD, MCF-7/DX
Method: as §1, §2

BMEC [1] = experiment: Cytotoxicity on endothelial cells (BMEC); format: cell-based, bovine
BMEC [2] = experiment: Chemotactic assay with the Boyden chamber on BMEC; format: cell-based, bovine
Method: For the antiangiogenic activity the chemotactic assay with the Boyden chamber was performed (Werner F., Goodwin R. H. and Leonard E. J., Journal of Immunological Methods 1980; 33, 239-247), using both bovine aortal endothelial cell (BAEC) cultures and bovine medullary endothelial cell (BMEC) cultures. The assays were performed at IC0 (maximum non-cytotoxic concentration) and the results expressed as % inhibition of migration across a porous filter in response to a chemotactic stimulus (1% bovine serum in DMEM culture medium). This finding was obtained by direct cell count under the optical microscope, and the percentage migration inhibition was calculated according to the formula (T−C/C)×100, where T=mean number of cells migrating in the sample and C=mean number of cells migrating in the control. The control consisted of cells which migrated towards the serum, not treated with the study molecules, and included in every chemotaxis experiment. The data refer to the readings of 5 microscopic fields/well in 4 independent chemotaxis wells per sample.

Structure (SMILES) | IC50 (LoVo/DX) [µM] | IC50 (MCF-7/DX) [µM] | IC0 (maximum non-cytotoxic concentration) (BMEC [1]) [µM] | activity on chemotaxis of endothelial cells (in words) (BMEC [2]) | activity on chemotaxis of endothelial cells (in words) (BMEC [2]; listed as ST 1381)
CC1(C)OCC(C2c3c([nH]c4ccccc34)C(c3c[nH]c4ccccc34)C3OC(C)(C)OC32)O1 (racemic) [ST1372, 1-(indol-3-yl)-2,3-O-isopropylidene-4-(2,3-O-isopropylidene-ethyl)-tetra-hydrocarbazole] | 26.3 | 26.9 | – | – | –
c1ccc2c(C3CCCCc4c3[nH]c3ccccc43)c[nH]c2c1 (racemic) [ST1381, 1-(indol-3-yl)-indo[2,3a]-cycloheptan.] | 25.2 | 28.4 | 30 | active | better anti-chemiotactic compound
c1ccc(COc2ccc3[nH]cc(C4CCCCc5c4[nH]c4ccc(OCc6ccccc6)cc54)c3c2)cc1 (racemic) [ST1765, 1-(5″-benzyloxy-indol-3-yl)-5′-benzyloxy-indo[2,3a]-cycloheptan] | 17 | 24.8 | – | – | –
c1ccc2c(C3CCCCc4[nH]c5ccccc5c43)c[nH]c2c1 (racemic) [ST1621, 5-(indol-3-yl)-indo(2,3a]-cycloheptan.] | 23.8 | 68.3 | 0.1 | – | –
c1ccc(COc2ccc3[nH]cc(C4CCCCc5[nH]c6ccc(OCc7ccccc7)cc6c54)c3c2)cc1 (racemic) [ST1778, 5-(5″-benzyloxy-indol-3-yl)-5′-benzyloxy-indo[2,3a]-cycloheptan.] | 65.1 | 71 | 25 | – | –
c1[nH]c2cc3c(cc2c1C1CCCc2c1[nH]c1cc4c(cc21)OCO4)OCO3 (racemic) [ST1751, 1-(5′,6′-methylendioxy-1H-indol-3-yl)-6,7-methylendioxy-tetrahydro-1H-carbazole] | – | 58.6 | – | – | –
Oc1ccc2[nH]cc(C3CCCCc4c3[nH]c3ccc(O)cc43)c2c1 (racemic) [ST1783, 1-(5″-hydroxy-1H-indol-3-yl)-5′-hydroxy-indo[2,3a]-cycloheptan] | – | 39 | 10 | – | –
c1ccc2c(C3CCCc4[nH]c5ccccc5c43)c[nH]c2c1 (racemic) [ST1729, 4-(1H-indol-3-yl)-tetrahydro-1H-carbazole] | – | – | 25 | – | –
c1[nH]c2cc3c(cc2c1C1CCCCc2c1[nH]c1cc4c(cc21)OCO4)OCO3 (racemic) [ST1749, 1-(5″,6″-methylendioxy-indol-3-yl)-5′,6′-methylendioxy-indo[2,3-a]-cycloeptane] | – | – | 100 | – | –
